Experimental data as given in a compilation of properties of binary mixtures (doi:10.1021/acs.jced.9b00769).

Assay: xn = mol fraction of the nth substance listed
Details: 100 kPa

OCCN(CCO)CCO + CCCCCCCCCCCC[P+](CC)(CC)CC.N#Cc1ccc[n-]1
x2 = 0
Details	viscosity [mPa·s]
293.15 K	940
298.15 K	611
303.15 K	413
313.15 K	204

OCCN(CCO)CCO + CCCC[P+](CC)(CC)CC.N#Cc1ccc[n-]1
x2 = 0
Details	viscosity [mPa·s]
293.15 K	940
298.15 K	611
303.15 K	413
313.15 K	204

CCCC[P+](CC)(CC)CC.N#Cc1ccc[n-]1 + OCCN(CCO)CCO
Details	electrical conductivity, 293.15 K [S/m]	viscosity, 293.15 K [mPa·s]	viscosity, 298.15 K [mPa·s]	viscosity, 303.15 K [mPa·s]	viscosity, 313.15 K [mPa·s]
x1 = 0.002	0.0007	–	–	–	–
x1 = 0.007	0.0017	–	–	–	–
x1 = 0.009	0.0022	–	–	–	–
x1 = 0.018	0.0036	960	–	410	188
x1 = 0.023	0.0041	–	–	–	–
x1 = 0.029	–	–	633	408	184
x1 = 0.047	0.0055	–	–	–	–
x1 = 0.059	0.0059	1010	660	426	191
x1 = 0.089	0.0068	970	636	410	185
x1 = 0.104	–	940	614	397	177
x1 = 0.123	0.0077	–	–	–	–
x1 = 0.223	–	–	530	–	155
x1 = 0.272	0.0115	–	–	–	–
x1 = 0.413	–	680	439	284	136
x1 = 0.508	–	647	426	–	132
x1 = 0.537	0.0248	–	–	–	–
x1 = 0.763	0.0489	478	318	210	106
x1 = 1	0.147	187	137	104	62

CCCCCCCCCCCC[P+](CC)(CC)CC.N#Cc1ccc[n-]1 + OCCN(CCO)CCO
Details	electrical conductivity [S/m]	viscosity [mPa·s]
293.15 K, x1 = 0.003	0.0008	–
293.15 K, x1 = 0.005	0.0012	–
293.15 K, x1 = 0.007	0.0016	–
293.15 K, x1 = 0.008	0.0019	–
293.15 K, x1 = 0.013	0.0027	–
293.15 K, x1 = 0.017	0.0033	920
293.15 K, x1 = 0.02	0.0036	–
293.15 K, x1 = 0.025	0.0038	–
293.15 K, x1 = 0.042	0.0051	–
293.15 K, x1 = 0.051	0.0053	1009
293.15 K, x1 = 0.065	0.0056	–
293.15 K, x1 = 0.08	0.0058	–
293.15 K, x1 = 0.09	0.006	–
293.15 K, x1 = 0.091	–	1032
293.15 K, x1 = 0.116	0.0062	–
293.15 K, x1 = 0.117	–	1007
293.15 K, x1 = 0.145	–	920
293.15 K, x1 = 0.28	–	860
293.15 K, x1 = 0.285	0.0061	–
293.15 K, x1 = 0.404	0.0069	–
293.15 K, x1 = 0.512	0.0081	–
293.15 K, x1 = 0.687	–	840
293.15 K, x1 = 0.701	0.0141	–
293.15 K, x1 = 0.809	–	720
293.15 K, x1 = 1	0.0267	423
298.15 K, x1 = 0.017	–	608
298.15 K, x1 = 0.035	–	641
298.15 K, x1 = 0.091	–	680
298.15 K, x1 = 0.117	–	649
298.15 K, x1 = 0.145	–	610
298.15 K, x1 = 0.28	–	573
298.15 K, x1 = 0.473	–	583
298.15 K, x1 = 0.687	–	576
298.15 K, x1 = 1	–	310
303.15 K, x1 = 0.017	–	396
303.15 K, x1 = 0.051	–	418
303.15 K, x1 = 0.091	–	435
303.15 K, x1 = 0.117	–	423
303.15 K, x1 = 0.145	–	403
303.15 K, x1 = 0.207	–	389
303.15 K, x1 = 0.28	–	379
303.15 K, x1 = 0.473	–	395
303.15 K, x1 = 0.687	–	395
303.15 K, x1 = 0.809	–	353
303.15 K, x1 = 1	–	214
313.15 K, x1 = 0.017	–	181
313.15 K, x1 = 0.035	–	194
313.15 K, x1 = 0.091	–	198
313.15 K, x1 = 0.145	–	192
313.15 K, x1 = 0.28	–	183
313.15 K, x1 = 0.473	–	194
313.15 K, x1 = 0.687	–	199
313.15 K, x1 = 0.809	–	184
313.15 K, x1 = 1	–	114

CCCCCCCCCCCC[P+](CCCC)(CCCC)CCCC.N#Cc1ccc[n-]1 + OCCN(CCO)CCO
Details	electrical conductivity [S/m]	viscosity [mPa·s]
293.15 K, x1 = 0.003	0.0006	–
293.15 K, x1 = 0.004	0.0008	–
293.15 K, x1 = 0.005	0.0011	–
293.15 K, x1 = 0.007	0.0014	–
293.15 K, x1 = 0.01	0.0019	–
293.15 K, x1 = 0.017	–	980
293.15 K, x1 = 0.022	0.003	–
293.15 K, x1 = 0.027	0.0032	–
293.15 K, x1 = 0.042	0.0036	–
293.15 K, x1 = 0.054	0.0038	1054
293.15 K, x1 = 0.075	0.0041	–
293.15 K, x1 = 0.177	0.0038	1025
293.15 K, x1 = 0.244	0.0039	970
293.15 K, x1 = 0.325	0.0041	930
293.15 K, x1 = 0.431	0.0043	830
293.15 K, x1 = 0.755	0.0057	680
298.15 K, x1 = 0.017	–	654
298.15 K, x1 = 0.054	–	680
298.15 K, x1 = 0.096	–	690
298.15 K, x1 = 0.121	–	690
298.15 K, x1 = 0.177	–	680
298.15 K, x1 = 0.244	–	646
298.15 K, x1 = 0.431	–	569
298.15 K, x1 = 0.538	–	532
303.15 K, x1 = 0.035	–	435
303.15 K, x1 = 0.096	–	452
303.15 K, x1 = 0.121	–	450
303.15 K, x1 = 0.177	–	450
303.15 K, x1 = 0.244	–	432
303.15 K, x1 = 0.431	–	391
303.15 K, x1 = 0.538	–	370
313.15 K, x1 = 0.017	–	205
313.15 K, x1 = 0.035	–	205
313.15 K, x1 = 0.054	–	208
313.15 K, x1 = 0.121	–	216
313.15 K, x1 = 0.177	–	219
313.15 K, x1 = 0.244	–	211
313.15 K, x1 = 0.431	–	200
313.15 K, x1 = 0.538	–	194
313.15 K, x1 = 0.755	–	182
313.15 K, x1 = 1	–	166
